Test results reported in patent publication US12509430B2, “Inhibitors of nicotinamide N-methyltransferase, compositions and uses thereof” (President and Fellows of Harvard College, priority 2020, dated 2025).
Read-outs that look alike come from different tables or passages of the source.

Key:
[1] = Microsomal stability, human microsomes with NADPH and UDPGA (Phase II); type: in vitro ADME; conditions: human liver microsomes, NADPH & UDPGA
Protocol: (§1) The metabolism of Compounds 4 and 13 was evaluated using a microsomal stability assay. Briefly, a master solution was prepared according to Tables 5 and 6.
(§2) For the assay with NADPH and UDPGA (Phase II), 40 μL of 10 mM NADPH solution and 40 μL of 20 mM UDPGA solution were added to each well. The final concentrations of NADPH and UDPGA were 1 mM and 2 mM. […] The negative control samples were prepared by replacing cofactors (NADPH and UDPGA) solution with 80 μL of ultra-pure H2O. Samples with cofactors were prepared in duplicate. Negative controls were prepared in singlet.
(§3) The reaction was started with the addition of 2 μL of 400 μM control compound or test compound solutions. Diclofenac was used as positive control in this study. The final concentration of test compound or control compound was 2 μM.
(§4) Aliquots of 50 μL were taken from the reaction solution at 0, 15, 30, 45 and 60 minutes.

recombinant human NNMT = target: T1, recombinant human NNMT (Homo sapiens, UniProt P40261); test: in vitro NNMT enzyme inhibition assay (Promega MTase-Glo Methyltransferase Assay); type: biochemical
T1 sequence (P40261 1-264): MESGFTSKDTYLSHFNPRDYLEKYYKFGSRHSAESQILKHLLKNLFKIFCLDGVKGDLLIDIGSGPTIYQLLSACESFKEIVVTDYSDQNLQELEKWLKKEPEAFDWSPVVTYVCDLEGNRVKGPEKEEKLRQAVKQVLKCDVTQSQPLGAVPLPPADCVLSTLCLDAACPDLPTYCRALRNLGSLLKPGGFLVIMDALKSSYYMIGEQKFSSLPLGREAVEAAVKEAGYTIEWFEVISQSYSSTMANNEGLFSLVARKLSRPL
Protocol: NNMT biochemical activity for was evaluated using the Promega Mtase-Glo Methyltransferase Assay kit. Assays were performed in a white, flat-bottomed 96 well plate. […] Reactions were performed for 20 minutes at room temperature. MTase-Glo reagent and MTase-Glo detection solution were added according to manufacturer's instructions and luminescence signal measured with a SpectraMax i3 plate reader and data analyzed with GraphPad Prism version 8. FIG. 14 depicts a visual summary of the Promega MTase-Glo Methyltransferase assay used to assess biochemical activity of novel inhibitors.

[2] = In vivo pharmacokinetics, plasma concentration of inhibitor in female C57B16/N mice
Source text: Doses were freshly prepared on the day of dosing.

[3] = Microsomal stability, mouse microsomes with NADPH (Phase I); type: in vitro ADME; conditions: mouse liver microsomes; for CLhep predicted at 2 μM: read-out: Predicted hepatic Clint; for CLint scaled at 2 μM: read-out: Scaled-up CLint
Protocol: as §1
(§5) The final concentrations of NADPH was 1 mM. […] Samples with NADPH were prepared in duplicate. Negative controls were prepared in singlet.
(§6) Verapamil was used as positive control in this study. The final concentration of test compound or control compound was 2 μM.
as §4

[4] = Microsomal stability, human microsomes with NADPH (Phase I); type: in vitro ADME; conditions: human liver microsomes; for CLhep predicted at 2 μM: read-out: Predicted hepatic Clint; for CLint scaled at 2 μM: read-out: Scaled-up CLint
Protocol: as §1, §5, §6, §4

[5] = tested on: 1-Methylnicotinamide (1-MNA); test: In vivo pharmacodynamics, plasma 1-MNA in female C57B16/N mice after inhibitor dosing; design: species or system mouse
Protocol: 1-Methylnicotinamide (1-MNA) concentrations were also determined.
Then the samples were vortexed for 30 s.

[6] = Microsomal stability, mouse microsomes with NADPH and UDPGA (Phase II); type: in vitro ADME; conditions: mouse liver microsomes, NADPH & UDPGA
Protocol: as §1, §2, §3, §4

[7] = tested on: Ovarian Cancer Associated Fibroblasts (CAF) markers; test: CAF markers in ovarian CAFs (gel electrophoresis); type: cell-based, human; conditions: incubation with compound, FIG. 5
Protocol: (§7) All cells were cultured at 37° C. in a humidified incubator buffered with 5% CO2. K562 cells were maintained in RPMI supplemented with 10% fetal bovine serum (FBS). Ovarian CAFs were maintained in MSC-Gro Vitroplus III for proliferation and in DMEM containing 10 μM methionine with 10% dialyzed FBS for experiments. K562 were purchased from ATCC. Ovarian CAFs were purchased from Neuromics.

NNMT in ovarian CAFs = target: T2, NNMT in ovarian CAFs (Homo sapiens, UniProt P40261); test: 1-MNA quantification in ovarian cancer associated fibroblasts; type: cell-based; conditions: 1 μM, six day continuous treatment
T2 construct: host or cells: ovarian cancer-associated fibroblasts
T2 sequence (P40261 1-264): T1 sequence (P40261 1-264)
Protocol: as §7
1-MNA quantification in ovarian CAFs (Neuromics) was performed similarly as in K562 cells, except cells were scraped off the plate in PBS buffer after a six day continuous treatment with compound and then extracted.

NNMT in K562 cells = target: T3, NNMT in K562 cells (Homo sapiens, UniProt P40261); test: Cellular inhibition of NNMT in K562 cells by 1-MNA quantification; type: cell-based
T3 construct: In K562 cells, which express NNMT; host or cells: K562
T3 sequence (P40261 1-264): T1 sequence (P40261 1-264)
Protocol: Cellular activity was measured in K562 (ATCC) cells via measuring (1-methyl nicotinamide) 1-MNA levels after compound incubation at varying concentrations overnight. […] Cells were collected by pipetting and extracted with 200 ul acetonitrile containing internal deuterated standard 10 ng/ml d4-1-MNA. […] The mobile phase A was 2.5 mM ammonium formate in water, and mobile phase B was methanol with 0.1% formic acid, delivered at 0.25 mL/min. The capillary voltage was set to 2400V and the nozzle at 300V. The drying gas temperature was 240° C., the drying gas flow rate was 4 L/min, and the nebulizer pressure was 40 psi. The mass spectrometer was run in multiple reaction monitoring mode.
as §7

U2OS = test: Cellular Activity IC50 (U2OS); type: cell-based; conditions: Homo sapiens
3T3L-1 = test: Cellular Activity IC50 (3T3L-1); type: cell-based; conditions: Mus musculus, 3T3-L1
[8] = read-out: Predicted hepatic Clint
[9] = IV 1 mg/kg, female C57B16/N mice
[10] = PO 10 mg/kg, female C57B16/N mice, plasma
[11] = PO 50 mg/kg, female C57B16/N mice, plasma
[12] = female, C57B16/N, mouse, plasma, iv, 1 mg/kg
[13] = female, C57B16/N, mouse, plasma, po, 10 mg/kg
[14] = female, C57B16/N, mouse, plasma, po, 50 mg/kg
[15] = plasma 1-MNA after inhibitor IV 1 mg/kg
[16] = plasma 1-MNA after inhibitor PO 10 mg/kg
[17] = plasma 1-MNA after inhibitor PO 50 mg/kg
[18] = K562, read-out: Cellular Activity IC50 (K562)

## CNc1cc(C)c(C(N)=O)cn1 [Compound 4, 4-methyl-6-(methylamino) nicotinamide]
[1]
  microsomal CLint at 2 μM: < 5.42 µL/min/mg
[1]; 2 μM
  half-life at 2 μM: > 4.26 h
[1]; 60 min
  Remaining (%) at 60 min: 96.85%
[1]; [8]
  CLhep predicted at 2 μM: < 0.307 L/h/kg
[1]; read-out: Scaled-up CLint
  CLint scaled at 2 μM: < 0.407 L/h/kg
Recombinant human NNMT; 40 nM recombinant human NNMT, 8 μM nicotinamide, 20 min, read-out: IC50, in vitro NNMT enzyme inhibition assay
  IC50: 0.244 µM
Recombinant human NNMT; read-out: in vitro hNNMT IC50
  IC50: 0.24 µM
[2]; [9]
  Cl_obs: 3.77 L/h/kg
  Vss_obs: 0.786 L/kg
[2]; IV 1 mg/kg, female C57B16/N mice, plasma
  AUC_%Extrap_obs: 1.63%
[2]; PO 10 mg/kg, female C57B16/N mice
  F_last: 101%
[2]; [10]
  AUC_%Extrap_obs: 0.194%
  T1/2: 1.11 h
[2]; PO 50 mg/kg, female C57B16/N mice
  F_last: 222%
[2]; [11]
  AUC_%Extrap_obs: 0.319%
  AUClast: 30.747 µg·h/mL
  Cmax: 38.9 µg/mL
  T1/2: 1.79 h
[2]; [12]
  AUC(0-inf): 0.278 µg·h/mL
  AUC(0-t): 0.273 µg·h/mL
  C0: 1.19 µg/mL
  MRT inf: 0.216 h
  half-life: 0.174 h
[2]; [13]
  AUC(0-inf): 2.81 µg·h/mL
  AUC(0-t): 2.8 µg·h/mL
  Cmax: 4 µg/mL
  MRT inf: 0.635 h
[2]; [14]
  AUC(0-inf): 30.8 µg·h/mL
  MRT inf: 0.695 h
[3]
  microsomal CLint at 2 μM: < 5.42 µL/min/mg
  half-life at 2 μM: > 4.26 h
  Remaining (%) at 60 min: 85.32%
  CLhep predicted at 2 μM: < 1.13 L/h/kg
  CLint scaled at 2 μM: < 1.42 L/h/kg
[4]
  microsomal CLint at 2 μM: < 5.42 µL/min/mg
  half-life at 2 μM: > 4.26 h
  Remaining (%) at 60 min: 94.54%
  CLhep predicted at 2 μM: < 0.307 L/h/kg
  CLint scaled at 2 μM: < 0.407 L/h/kg
[5]; [15]
  AUClast of 1-MNA: 792 ng·h/mL
  Cmax of 1-MNA: 39.3 ng/mL
  Tmax of 1-MNA: 16.7 h
[5]; [16]
  AUClast of 1-MNA: 761 ng·h/mL
  Cmax of 1-MNA: 42.4 ng/mL
  Tmax of 1-MNA: 18.7 h
[5]; [17]
  AUClast of 1-MNA: 678 ng·h/mL
  Cmax of 1-MNA: 48.8 ng/mL
  Tmax of 1-MNA: 24.0 h
[6]
  microsomal CLint at 2 μM: < 5.42 µL/min/mg
[6]; 2 μM
  half-life at 2 μM: > 4.26 h
[6]; 60 min
  Remaining (%) at 60 min: 85.18%
[6]; [8]
  CLhep predicted at 2 μM: < 1.13 L/h/kg
[6]; read-out: Scaled-up CLint
  CLint scaled at 2 μM: < 1.42 L/h/kg
[7]
  CAF markers in ovarian CAFs: reduction in CAF markers
NNMT in ovarian CAFs
  NNMT inhibition in ovarian CAFs (1-MNA quantification): significantly inhibited NNMT
NNMT in K562 cells; [18]
  IC50: 0.016 µM
NNMT in K562 cells; K562 cells, 24 h, 1-MNA quantification, read-out: IC50, NNMT inhibition in K562 cells
  IC50: 0.015 µM

## CNc1cc(Cl)c(C(N)=O)cn1 [Compound 13]
Recombinant human NNMT; read-out: in vitro hNNMT IC50
  IC50: 0.673 µM
[3]
  microsomal CLint at 2 μM: < 5.42 µL/min/mg
  half-life at 2 μM: > 4.26 h
  Remaining (%) at 60 min: 85.85%
  CLhep predicted at 2 μM: < 1.13 L/h/kg
  CLint scaled at 2 μM: < 1.42 L/h/kg
[4]
  microsomal CLint at 2 μM: < 5.42 µL/min/mg
  half-life at 2 μM: > 4.26 h
  Remaining (%) at 60 min: 110.09%
  CLhep predicted at 2 μM: < 0.307 L/h/kg
  CLint scaled at 2 μM: < 0.407 L/h/kg
NNMT in K562 cells; [18]
  IC50: 0.106 µM

## COc1ccc(C(N)=O)cn1 [JBSNF-000088]
U2OS
  IC50: 1.6 µM
Recombinant human NNMT; read-out: in vitro hNNMT IC50
  IC50: 2.4 µM
3T3L-1
  IC50: 6.3 µM

## CNc1ccc(C(N)=O)cn1 [JBSNF-000265, reference compound]
U2OS
  IC50: 0.3 µM
3T3L-1
  IC50: 2.1 µM
[2]; [11]
  AUC_%Extrap_obs: 0.0313%
[2]; [14]
  AUC(0-inf): 15.5 µg·h/mL
  AUC(0-t): 15.4 µg·h/mL
  Cmax: 20.9 µg/mL
  MRT inf: 0.57 h
  Tmax: 0.333 h
  half-life: 1.06 h
[3]
  microsomal CLint at 2 μM: ~4.94 µL/min/mg
  half-life at 2 μM: ~4.67 h
  Remaining (%) at 60 min: 84.73%
  CLhep predicted at 2 μM: ~1.05 L/h/kg
  CLint scaled at 2 μM: ~1.3 L/h/kg
[4]
  microsomal CLint at 2 μM: ~6.84 µL/min/mg
  half-life at 2 μM: ~3.38 h
  Remaining (%) at 60 min: 81.72%
  CLhep predicted at 2 μM: ~0.364 L/h/kg
  CLint scaled at 2 μM: ~0.514 L/h/kg
[5]; [17]
  AUClast of 1-MNA: 799 ng·h/mL
  Cmax of 1-MNA: 39.3 ng/mL
  Tmax of 1-MNA: 6.7 h

## CNc1cc(C)c(C(N)=O)cn1 [JBSNF-000581, reference compound]
Recombinant human NNMT; read-out: in vitro hNNMT IC50
  IC50: 0.84 µM
